How the values were obtained:
[1] = system: head and neck squamous cell carcinoma cells (SCC25); assay: clonogenic cell survival assay, SCC25; format: cell-based, Human; conditions: ascorbate 1 h in combination with 5, 10 or 20 μM GC4419 24 h, both present at the same time; compared to monotherapies or sequential treatment with media replacement; FIG. 3
Protocol: FIG. 3 is a plot showing the surviving fraction of SCC25 cells for increasing amounts of ascorbate, as determined by a clonogenic cell survival assay used to determine the effects of the compound alone and in combination with a pentaaza macrocyclic ring complex (GC4419). Human head and neck squamous cell carcinoma cells (SCC25) were exponentially grown in culture for 24 hours. The cells were then treated with 5-20 μM GC4419 for 24 hours and ascorbate (Asc) for one hour, followed by immediate clonogenic assay. The cells were trypsinized, counted, replated at varying lower densities and incubated. Plates were stained and counted for clonogenic survival assays.
The effect of ascorbate was tested in a clonogenic cell survival assay to determine the effects of the compound alone and in combination with a pentaaza macrocyclic ring complex (GC4419). Human head and neck squamous cell carcinoma cells (SCC25) were exponentially grown in culture for 24 hours. The cells were then treated with 5-20 μM GC4419 for 24 hours, and ascorbate (Asc) for one hour, followed by immediate clonogenic assay. The cells were trypsinized, counted, replated at varying lower densities and incubated. Plates were stained and counted for clonogenic survival assays.

[2] = system: oral mucositis in head-and-neck cancer patients; conditions: head-and-neck cancer patients undergoing chemoradiation therapy; cited from earlier work
[3] = system: head and neck squamous cell carcinoma cells (SQ20B); assay: clonogenic cell survival assay, SQ20B; format: cell-based, Human
Protocol: FIG. 5 is a plot showing the surviving fraction of SQ20B cells for increasing amounts of ascorbate, as determined by a clonogenic cell survival assay used to determine the effects of the compound alone and in combination with a pentaaza macrocyclic ring complex (GC4419). Human head and neck squamous cell carcinoma cells (SQ20B) were exponentially grown in culture for 48 hours. The cells were then treated with 5-20 μM GC4419 for 24 hours, followed by treatment with 5-20 pmol/cell ascorbate for 1 hour. The cells were then trypsinized, counted, replated at varying lower densities and incubated. Plates were stained and counted for clonogenic survival assays.
FIG. 7 is a graph showing the surviving fraction of SQ20B cells treated with ascorbate and combinations including ascorbate. The effects of ascorbate in combination with a pentaaza macrocyclic ring complex (GC4419) was tested in a clonogenic cell survival assay to determine the effects of the combination alone and when paired with ionizing radiation. Human head and neck squamous cell carcinoma cells (SQ20B) were plated and grown in culture for 48 hours. The cells were then treated with 5 μM GC4419 for 24 hours and 10 pmol/cell ascorbate (AA) for 1 hour, either alone, in combination (GC+AA), and/or paired with a dose of ionizing radiation (2 Gy). After the ionizing radiation dose, the cells were trypsinized, counted, replated at varying lower densities and incubated. Plates were stained and counted for clonogenic survival assays.
FIG. 8 is a graph showing the surviving fraction of SQ20B cells treated with ascorbate and combinations including ascorbate. The effects of ascorbate in combination with a pentaaza macrocyclic ring complex (GC4419) was tested in a clonogenic cell survival assay to determine the effects of the combination alone and when paired with the chemotherapeutic agent cisplatin. Human head and neck squamous cell carcinoma cells (SQ20B) were plated and grown in culture for 48 hours. The cells were then treated with cisplatin for 6 hours, 10 μM GC4419 for 3 hours, and 10 pmol/cell ascorbate (AA) for 1 hour. The cells were then trypsinized, counted, replated at varying lower densities and incubated. Plates were stained and counted for clonogenic survival assays.
The effect of ascorbate was tested in a clonogenic cell survival assay to determine the effects of the compound alone and in combination with a pentaaza macrocyclic ring complex (GC4419). Human head and neck squamous cell carcinoma cells (SQ20B) were exponentially grown in culture for 48 hours. The cells were then treated with 5-20 μM GC4419 for 24 hours, followed by treatment with 5-20 pmol/cell ascorbate for 1 hour. The cells were then trypsinized, counted, replated at varying lower densities and incubated. Plates were stained and counted for clonogenic survival assays.
The effects of ascorbate in combination with a pentaaza macrocyclic ring complex (GC4419) was tested in a clonogenic cell survival assay to determine the effects of the combination alone and when paired with ionizing radiation. Human head and neck squamous cell carcinoma cells (SQ20B) were plated and grown in culture for 48 hours. […] After the ionizing radiation dose, the cells were trypsinized, counted, replated at varying lower densities and incubated. Plates were stained and counted for clonogenic survival assays. […]

[Cl][Mn][Cl].c1cc2nc(c1)CN[C@H]1CCCC[C@@H]1NCCN[C@H]1CCCC[C@@H]1NC2 [GC4419]
cell killing (clonogenic survival) [1]: significant enhancements in cell killing | oral mucositis [2]: reduce oral mucositis | synergistic activity of the combination ([3]; 5 μM GC4419 24 h + 10 pmol/cell ascorbate 1 h (GC+AA), FIG. 7): more than merely an additive effect | cell killing (clonogenic survival) ([3]; 5 μM GC4419 24 h + 10 pmol/cell ascorbate 1 h (GC+AA), compared to control and to each alone, FIG. 7): significant enhancements in cell killing | cytotoxicity (clonogenic survival) ([3]; 5-20 pmol/cell ascorbate 1 h in combination with 5, 10 or 20 μM GC4419 24 h, FIG. 5): increases the cytotoxicity of GC4419 or ascorbate | sensitization to ionizing radiation ([3]; GC+AA+IR (2 Gy) compared to IR 2Gy alone, FIG. 7): sensitized the cancer cells to radiation | cell killing (clonogenic survival) ([3]; cisplatin 6 h + 10 μM GC4419 3 h + 10 pmol/cell ascorbate 1 h, compared to control and cisplatin, GC4419 or ascorbate monotherapies, FIG. 8): significant enhancements in cell killing

Reference: patent US11219614B2, “Combination cancer therapy with pentaaza macrocyclic ring complex and ascorbate compound” (Galera Labs, LLC, priority 2016, dated 2022)
